Test results from patent US20190307820A1, “COMPOSITIONS AND METHODS OF USING STAT1/3 INHIBITORS WITH ONCOLYTIC HERPES VIRUS” (priority 2016, published 2019).
Like-named read-outs stand apart in the source and are kept apart here.

Key:
[1] = tested on: ICP4; assay: Western blot of ICP4 in HSV-1 infected microglia cells; assay type: cell-based; settings: G207 infected; 1 μM C16, 1 μM Bay11 or 100 μM AG; 24 hours
Experimental: FIG. 12B depicts an electrophoresis gel showing total proteins that were harvested from G2O7 infected microglia cells at 24 hours post treatment with either 1 μM of C16, 1 μM of Bay11, or 100 μM of AG. ICP27, ICP4, and […] expression was measured by western blot assay. U87 and MG co-culture were pretreated with 0.5 μM of C16 for 1 hour.
Total protein was harvested with sample buffer (125 mM Tris-HCL, 50% Glycerol, […] and 5% 2-mercaptoethanol) and boiled for 5 minutes. Protein samples were subjected to SDS-PAGE (8% gel), transferred to nitrocellulose membranes and blocked in 5% nonfat milk (Bio Rad) in TBS-Tween 20 (TBS-T) for 1 hour at room temperature. The membranes were then incubated with primary antibody against β-actin at 1:1000 (Cell Signaling, Danvers, Mass.) or anti-STAT1 antibody at 1:1000 (Cell Signaling, Danvers, Mass.) or anti-STAT3 antibody at 1:1000 (Cell Signaling, Danvers, Mass.) or anti-phospho STAT1 antibody (Tyr701) at 1:1000 (Cell Signaling, Danvers, Mass.) or anti-phospho STAT3 antibody (Tyr705) at 1:1500 (Cell Signaling, Danvers, Mass.) or anti-phosphor-eIF2a antibody (ser51) at 1:1000 (Cell Signaling, Danvers, Mass.) or anti-ICP27 antibody at 1:1000 (Abcam, Cambridge, Mass.) or anti-ICP4 antibody at 1:750 (Abcam, Cambridge, Mass.) for overnight at 4° C. […] Band density was measured by using ImageJ software (NIH, Bethesda, Md.). […]

[2] = tested on: U87 cells; assay: MTT cytotoxicity assay, U87 cells; assay type: cell-based; settings: Homo sapiens, U-87 MG
Experimental: (FIG. 5A) U87 cells were treated with HrR3 at a MOI of 5 and indicated concentration of nifuroxazide for 6 hours. Extracted protein was then subjected to western blot assay. (FIG. 5B) U87 cells were treated with indicated concentration of HrR3 or nifuroxazide or stattic or in combination for 72 hours. Cytotoxicity was measured by MTT assay. (FIG. 5C) Relative mRNA level (2^−ΔΔCT) is shown. Data are presented as mean SD, *P<0.05 vs corresponding vehicle treatment.
Expression of key regulator of the Type1 interferon signaling, STAT1 and STAT3, was determined in nifuroxazide treated oHSV-1 infected U87 cells.

[3] = tested on: ICP4; assay: Western blot of ICP4 in HrR3 infected U87 cells; assay type: cell-based, HSV-1; settings: 0.5 μM, 1 μM and 10 μM nifuroxazide, HrR3 MOI-3, 24 hours
Experimental: FIGS. 4A-4C show the effect of nifuroxazide on HSV-1 gene expression. (FIG. 4A) U87 cells were treated with HrR3 viruses at a MOI-3 and indicated doses of nifuroxazide. 24 hours post infected, total protein was extracted and subjected to western blot analysis. (FIG. 4B) U87 cells were treated with HrR3 at a MOI-5 and indicated concentration of nifuroxazide for 6 hours. ICP27 mRNA level was detected by RT-qPCR. (FIG. 4C) Relative mRNA level (2^−ΔΔCT) is shown. Data are presented as mean SD, *P<0.05 vs corresponding vehicle treatment.
In this example, the underlying mechanism of nifuroxazide mediated oHSV-1 replication enhancement was examined. The effect of nifuroxazide on viral immediate early gene, ICP27 and ICP4 expression was established by Western blot analysis.

[4] = biological target: T1, pSTAT3 (Homo sapiens, UniProt P40763); assay: Western blot of phosphorylated STAT3 in harvested U87 tumour tissues; assay type: in vivo, mice; settings: HrR3 with 50 mg/kg or 100 mg/kg NF i.p., day 10
T1 construct: from tissue; host or cells: subcutaneous U87 tumours harvested from mice
T1 sequence (P40763 whole entry): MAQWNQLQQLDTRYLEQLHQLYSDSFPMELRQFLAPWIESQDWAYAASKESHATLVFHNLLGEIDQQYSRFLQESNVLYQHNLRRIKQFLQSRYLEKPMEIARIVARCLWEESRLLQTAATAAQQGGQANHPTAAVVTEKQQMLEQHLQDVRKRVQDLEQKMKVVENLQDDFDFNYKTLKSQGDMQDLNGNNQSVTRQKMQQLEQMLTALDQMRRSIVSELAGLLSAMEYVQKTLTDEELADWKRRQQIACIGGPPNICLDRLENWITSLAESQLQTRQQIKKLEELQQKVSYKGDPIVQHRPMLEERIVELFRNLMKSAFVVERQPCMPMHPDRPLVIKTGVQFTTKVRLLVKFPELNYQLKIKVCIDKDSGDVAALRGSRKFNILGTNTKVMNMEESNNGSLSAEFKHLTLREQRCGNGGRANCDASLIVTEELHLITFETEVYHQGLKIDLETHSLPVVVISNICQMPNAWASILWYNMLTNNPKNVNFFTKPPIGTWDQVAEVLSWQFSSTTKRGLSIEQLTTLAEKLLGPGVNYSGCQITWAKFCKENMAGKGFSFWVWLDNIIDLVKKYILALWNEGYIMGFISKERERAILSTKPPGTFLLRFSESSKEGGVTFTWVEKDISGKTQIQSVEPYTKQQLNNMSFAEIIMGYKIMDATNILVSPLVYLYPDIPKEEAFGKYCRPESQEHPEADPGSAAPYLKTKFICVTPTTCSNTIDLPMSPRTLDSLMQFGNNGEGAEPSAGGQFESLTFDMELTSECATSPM
Experimental: FIGS. 19A-C show STAT inhibition by the combination of NF and oHSV-1. FIG. 19A and FIG. 19B, U87 cells (A) or CT26 cells (B) were treated with the indicated concentrations of HrR3 or NF or a combination. Total protein was extracted after 24 hours and subjected to western blot analysis. Band intensity was measured using Image J software and normalized to β-actin. Samples were run in triplicate and data are as means±S.E. Statistically significant differences are indicated by P<0.05 or P<0.01. FIG. 19C, Mice subcutaneously bearing U87 tumors were intratumorally injected with a single dose of HrR3 virus (1×10^6 PFU) and/or peritoneally injected doses of NF as indicated. Tumors were harvested on day 10 post treatment and total protein was extracted from a mouse of each treatment group and subjected to western blot analysis in triplicate. Results are reported as means±S.E.
To further confirm that NF is able to inhibit STAT activation in vivo, subcutaneously implanted U87 tumours were treated with either HrR3 alone or in combination with 50 mg/kg NF or 100 mg/kg NF. Expression levels of phosphorylated STAT1/3 in harvested tumour tissues were measured by western blotting.

SMILES	upregulated expression of ICP4 [1]	IC50 ([2]; in combination with MOI of 1 HrR3, 72 hours, read-out: IC50, nifuroxazide dose in combination)	IC50 ([2]; individual dose, 72 hours, MTT assay, read-out: Inhibitory concentration 50% (IC50))	ICP4 expression [3]	virally induced upregulation of pSTAT3 [4]
O=C1Nc2ccc3ncsc3c2/C1=C/c1c[nH]cn1 [C16, 6,8-Dihydro-8-(1H-imidazol-5-ylmethylene)-7H-pyrrolo[2,3-g]benzothiazol-7-one]	1.8 fold	–	–	–	–
O=C(N/N=C/c1ccc([N+](=O)[O-])o1)c1ccc(O)cc1 [nifuroxazide, Benzoic acid, 4-hydroxy-, [(5-nitro-2-furanyl)metylene]hydrazide]	–	~4 µM	~20 µM	not ICP4 expression	inhibited in a dose-dependent fashion
